The results in this text go back to article PMC10258912, “Synthesis and Molecular Docking of New N-Acyl Hydrazones-Benzimidazole as hCA I and II Inhibitors” (Medicinal Chemistry (Shariqah (United Arab Emirates), 2023).

Where two headings read alike, the source gives them in different places.

For assay [1], the target named is T1, hCA I (Homo sapiens, UniProt P00915).
T1 construct: made in house
Put plainly: hCA I hydratase activity inhibition assay (Wilbur-Anderson method). The class given is biochemical. The following applies: for Ki: Cheng-Prusoff equation. How it is done:
(§1) Purification of hCA I and hCA II by affinity chromatography was performed as described in the previous work.
(§2) The Wilbur-Anderson method, as modified by Wilber et al., was used to calculate CA activity. With the help of a bromothymol blue indicator and a measurement of the passing time, the pH changes were calculated using this approach, which causes the hydration of CO2 to release H^+ ions. The equation (to-tc/tc), where to and tc are the times for pH change of the enzymatic and nonenzymatic processes, respectively, was used to compute the enzyme unit (EU).
(§3) While keeping the concentration of the substrate constant, IC50 values for the various compounds were computed. Enzyme activities in the absence of inhibitors in the medium were taken as 100% activity. By assessing the hydratase activity in the presence of various inhibitor concentrations, the activity % values of enzymes were calculated. Utilizing graphs of activity %-[I] for each inhibitor, the IC50 value was determined. The Cheng-Prusoff equation was used to derive inhibition constants using the nonlinear least squares method.

The target in assay [2] is T2, hCA II (Homo sapiens, UniProt P00918).
T2 construct: made in house
The assay is described as follows: hCA II hydratase activity inhibition assay (Wilbur-Anderson method). Format: biochemical. The following applies: for relative inhibitory activity hCA II versus hCA I: comparison of IC50 values on hCA I and hCA II. How it is done:
as §1, §2, §3

Setting [3] is: hydratase activity, constant substrate concentration, read-out: IC50 hCA I.

Broadly, the IC50 is the concentration at which inhibition is half-maximal. A word on the Ki: it is the equilibrium dissociation constant of an inhibitor or competing ligand from its target.

T1 sequence (P00915 whole entry): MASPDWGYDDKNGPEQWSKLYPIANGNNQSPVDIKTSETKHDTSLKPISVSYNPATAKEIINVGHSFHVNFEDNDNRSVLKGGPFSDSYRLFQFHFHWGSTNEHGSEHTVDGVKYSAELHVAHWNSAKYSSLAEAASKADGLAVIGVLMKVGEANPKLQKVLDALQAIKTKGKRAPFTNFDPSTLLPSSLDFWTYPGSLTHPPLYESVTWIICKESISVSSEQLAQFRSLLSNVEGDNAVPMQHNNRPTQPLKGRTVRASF

`CCN(CC)c1ccc(C=NNC(=O)c2ccc(-c3nc4ccccc4[nH]3)cc2)cc1` [Compound 3c, 4-(1H-benzimidazole-2-yl)-N’-(4-(diethylamino)benzylidene)benzohydrazide] had an IC50 in assay [1] of 2090 nM.

With `CCOc1ccc(C=NNC(=O)c2ccc(-c3nc4ccccc4[nH]3)cc2)cc1` [Compound 3i, 4-(1H-benzimidazole-2-yl)-N’-(4-ethoxybenzylidene) benzohydrazide], the “relative inhibitory activity hCA II versus hCA I” value in assay [2] was “more inhibitory activity on hCA II than hCA I”.

In the case of `CC(C)c1ccc(C=NNC(=O)c2ccc(-c3nc4ccccc4[nH]3)cc2)cc1` [Compound 3d, 4-(1H-benzimidazole-2-yl)-N’-(4-isopropylbenzylidene)benzohydrazide], the half-maximal inhibitory concentration (IC50) in assay [1] (setting [3]) was determined as 1870 nM.

Consider “N-(1H-benzimidazole-2-yl)-N’-benzylidenebenzo hydrazide [Compound 3a]”, for which the “relative inhibitory activity hCA II versus hCA I” value in assay [2] was “more inhibitory activity on hCA II than hCA I”.

Regarding `O=C(NN=Cc1ccc(F)cc1)c1ccc(-c2nc3ccccc3[nH]2)cc1` [Compound 3l, 4-(1H-benzimidazole-2-yl)-N’-(4-fluorobenzylidene)benzohydrazide], the IC50 turned out to be 2720 nM in assay [1] (setting [3]) and 2740 nM in assay [2] (hydratase activity, constant substrate concentration). For the same molecule, the “relative inhibitory activity hCA II versus hCA I” value in assay [2] was “fairly close inhibitory properties on hCA I and hCA II”.

For `COc1ccc(C=NNC(=O)c2ccc(-c3nc4ccccc4[nH]3)cc2)cc1` [Compound 3k, 4-(1H-benzimidazole-2-yl)-N’-(4-methoxybenzylidene)benzohydrazide], in assay [2], the “relative inhibitory activity hCA II versus hCA I” value is on record as “more inhibitory activity on hCA II than hCA I”.

`Cc1ccc(C=NNC(=O)c2ccc(-c3nc4ccccc4[nH]3)cc2)cc1` [Compound 3p, 4-(1H-benzimidazole-2-yl)-N’-(4-methylbenzyli-dene) benzohydrazide]: in assay [1], the “type of inhibition, hCA I” value was “noncompetitive” and the Ki amounted to 299 ± 10 nM. The IC50 in assay [1] (setting [3]) amounted to 1680 nM.

`O=C(NN=Cc1ccc(OCc2ccccc2)cc1)c1ccc(-c2nc3ccccc3[nH]2)cc1` [Compound 3j, 4-(1H-benzimidazole-2-yl)-N’-(4-(benzyloxy)benzylidene)benzohydrazide]: the half-inhibitory concentration (IC50) in assay [1] (setting [3]) came to 1950 nM.

For `O=C(NN=Cc1ccc([N+](=O)[O-])cc1)c1ccc(-c2nc3ccccc3[nH]2)cc1` [Compound 3n, 4-(1H-benzimidazole-2-yl)-N’-(4-nitrobenzylidene) benzohydrazide], the inhibition constant Ki in assay [1] is 956 nM. In addition, in assay [2], the “relative inhibitory activity hCA II versus hCA I” value was “more inhibitory activity on hCA II than hCA I”.
